# What was measured:
# [1] = Body weight, food intake and body composition of tumour-bearing mice treated with PTP1B inhibitor; format: in vivo
# Procedure: (§1) FIG. 20. PTP1B-specific inhibitor MSI-1436 (Trodusquemine) repressed tumor growth. 1×10^6 AT-3 OVA breast cancer cells suspended in 20 μl 1×DPBS were transplanted into mammary fat pads of T cell-specific PTP1B-deficient (Lck-Cre; Ptpn1^fl/fl; n=16) and PTP1B wild-type (Ptpn1^fl/fl; n=16) female mice. 17 days after the tumor cell transplantation, MSI-1436 was applied to recipient mice through intraperitoneal injection in 100 μl 0.9% (v/v) saline with the concentration of 10 mg per kilogram body weight. 8 out 16 mice from both Ptpn1^fl/fl and Lck-Cre; Ptpn1^fl/fl recipients were treated every three days with MSI-1436 before the start of the dark cycle. […] This was accompanied by a reduction in food intake and adiposity but no changes in lean mass (data not shown). Representative results (means±SEM) for the indicated numbers of mice and experiments are shown. Significances were determined using 2-tailed Mann-Whitney U Test.
# [2] = test system: AT-3 OVA breast cancer cells; assay: Syngeneic AT-3 OVA breast cancer tumour growth in mice treated with PTP1B inhibitor; format: in vivo; settings: for Tumor growth: AT-3 OVA cells in mammary fat pads, Ptpn1fl/fl and Lck-Cre;Ptpn1fl/fl female mice, 10 mg/kg i.p. every three days from day 17, vs untreated Ptpn1fl/fl, p<0.0001, 2-way ANOVA
# Procedure: as §1
# Breast cancer cells were transplanted into mammary fat pads of mice that were “globally” ptp1b-deficient (Ptpn1^−/−) or T-cell specific ptp1b-deficient (Lck-Cre; Ptpn1^fl/fl). Tumour growth was monitored for 28 days after transplantation. […] (FIG. 18A). […] (FIG. 19A).
smiles,measurement,setting,value
"CC(C)[C@@H](CC[C@@H](C)[C@H]1CC[C@H]2[C@@H]3[C@H](O)C[C@H]4C[C@@H](NCCCNCCCCNCCCN)CC[C@]4(C)[C@H]3CC[C@]12C)OS(=O)(=O)O [MSI-1436, Trodusquemine]",Body weight,"[1]; Lck-Cre;Ptpn1fl/fl or Ptpn1fl/fl mice, 10 mg/kg i.p. every three days, p<0.0001",significant weight loss
same,Adiposity,"[1]; treated mice, data not shown",reduction
same,Food intake,"[1]; treated mice, data not shown",reduction
same,Lean mass,"[1]; treated mice, data not shown",no changes
same,Tumor growth,[2]; 10 mg/kg,significantly suppressed
same,Tumor growth,"[2]; listed as MSI1436, 10 mg/kg",repressed the growth
same,Tumour burden in mice lacking PTP1B in T cells,"[2]; Lck-Cre;Ptpn1fl/fl mice, treatment once every 3 days",did not lead to further reductions in tumour burden
same,Tumor burden,"[2]; MSI-1436-treated Ptpn1fl/fl mice vs non-treated counterparts, 10 mg/kg i.p. every three days, p<0.0001",significant reduction of tumor burden

# From patent US20210207095A1, “METHODS OF ACTIVATING CELLS VIA PTP 1B INHIBITION” (Monash University, priority 2018, published 2021)
